# Target: T1, human IDO1 (Homo sapiens, UniProt P14902)
# T1 construct: expressed in transfected cells
# Assay: HEK293 cells stably expressing human IDO1, IDO inhibition assay (kynurenine, Ehrlich reagent)
# Format: cell-based
# Details: 20 hours incubation, absorbance at 490 nm, read-out: HEK Human IDO-1 Bio Activity (IDO IC50)
# Experimental: HEK293 cells were transfected with a pCDNA-based mammalian expression vector harboring human IDO1 cDNA (NM 002164.2) by electroporation. They were cultured in medium (DMEM with 10% FBS) containing 1 mg/ml G418 for two weeks. Clones of HEK293 cells that stably expressed human IDO1 protein were selected and expanded for IDO inhibition assay. The human IDO1/HEK293 cells were seeded at 10,000 cells per 50 μL per well with RPMI/phenol red free media contains 10% FBS in a 384-well black wall clear bottom tissue culture plate (Matrix Technologies LLC) 100 nL of certain concentration of compound was then added to each well using ECHO liquid handling systems. The cells were incubated for 20 hours in 37° C. incubator with 5% CO2. The compound treatments were stopped by adding trichloroacetic acid (Sigma-Aldrich) to a final concentration at 0.2%. The cell plate was further incubated at 50° C. for 30 minute. The equal volume supernatant (20 μL) and 0.2% (w/v) Ehrlich reagent (4-dimethylaminobenzaldehyde, Sigma-Aldrich) in glacial acetic acid were mixed in a new clear bottom 384-well plate. This plate was then incubated at room temperature for 30 minute. The absorbance at 490 nm was measured on Envision plate reader. Compound IC50 values were calculated using the counts of 500 nM of a reference standard treatment as one hundred percent inhibition, and counts of no compound but DMSO treatment as zero percent inhibition.
# T1 sequence (P14902 whole entry): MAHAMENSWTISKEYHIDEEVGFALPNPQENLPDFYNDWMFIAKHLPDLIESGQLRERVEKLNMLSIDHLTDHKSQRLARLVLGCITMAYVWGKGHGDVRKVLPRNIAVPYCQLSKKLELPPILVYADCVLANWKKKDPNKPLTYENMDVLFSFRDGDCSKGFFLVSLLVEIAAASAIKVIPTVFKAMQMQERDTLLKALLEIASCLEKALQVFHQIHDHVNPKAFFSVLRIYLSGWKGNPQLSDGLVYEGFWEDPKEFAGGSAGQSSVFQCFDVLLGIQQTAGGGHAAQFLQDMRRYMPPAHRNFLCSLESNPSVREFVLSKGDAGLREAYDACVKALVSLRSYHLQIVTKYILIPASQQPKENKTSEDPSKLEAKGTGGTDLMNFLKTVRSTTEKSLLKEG
row,Compound,IC50 [nM]
1,"CCN(C(=O)N[C@@H](C)c1ccc(Cl)cc1)[C@H]1CC[C@H](c2ccnc3ccc(F)cc32)CC1 [Example 37, 3-((S)-1-(4-chlorophenyl)ethyl)-1-ethyl-1-((1r,4S)-4-(6-fluoroquinolin-4-yl)cyclohexyl)urea]",< 1000
2,"O=C(O)Cc1ccc(CN(C(=O)Nc2ccc(Cl)cc2F)[C@H]2CC[C@H](c3ccnc4ccc(F)cc43)CC2)cc1 [Example 26, 2-(4-((3-(4-chloro-2-fluorophenyl)-1-(trans-4-(6-fluoroquinolin-4-yl)cyclohexyl)ureido)methyl)phenyl) acetic acid]",< 100
3,"COc1ccc(CN(C(=O)N[C@@H](C)c2ccc(Cl)cc2)[C@H]2CC[C@H](c3ccccc3)CC2)cc1 [Example 31, 3-((S)-1-(4-chlorophenyl)ethyl)-1-(4-methoxybenzyl)-1-((1r,4S)-4-phenylcyclohexyl)urea]",< 1000
4,"COc1ccc(CN(C(=O)Nc2ccc(C(F)(F)F)cc2)[C@H]2CC[C@H](c3ccccc3)CC2)cc1 [Example 12, 1-(4-methoxybenzyl)-1-(trans-4-phenylcyclohexyl)-3-(4-(trifluoromethyl)phenyl)urea]",< 100
5,"N#Cc1ccc(NC(=O)N(Cc2ccccc2)[C@H]2CC[C@H](c3ccnc4ccc(F)cc43)CC2)cc1 [Example 22, 1-benzyl-3-(4-cyanophenyl)-1-(trans-4-(6-fluoroquinolin-4-yl)cyclohexyl)urea]",< 10000
6,"CCOc1ccc(NC(=O)N(Cc2ccc(OC)cc2)[C@H]2CC[C@H](c3ccccc3)CC2)cc1 [Example 13, 3-(4-ethoxyphenyl)-1-(4-methoxybenzyl)-1-(trans-4-phenylcyclohexyl)urea]",< 1000
7,"COc1ccc(CN(C(=O)Nc2ccc(F)cc2)[C@H]2CC[C@H](c3ccccc3)CC2)cc1 [Example 9, 3-(4-fluorophenyl)-1-(4-methoxybenzyl)-1-(trans-4-phenylcyclohexyl)urea]",< 1000
8,"COc1ccc(CN(C(=O)N[C@H](C)c2ccc(F)cc2)C2CCC(c3ccccc3)CC2)cc1 (stereo partly drawn) [Example 33, 3-((R)-1-(4-fluorophenyl)ethyl)-1-(4-methoxybenzyl)-1-((1r,4R)-4-phenylcyclohexyl)urea]",< 100
9,"C[C@H](NC(=O)N(C)[C@H]1CC[C@H](c2ccnc3ccc(F)cc32)CC1)c1ccc(Cl)cc1 [Example 36, 3-((S)-1-(4-chlorophenyl)ethyl)-1-((1r,4S)-4-(6-fluoroquinolin-4-yl)cyclohexyl)-1-methylurea]",< 1000
10,"CCN(C(=O)Nc1ccc(Cl)cc1)[C@H]1CC[C@H](c2ccnc3ccc(F)cc32)CC1 [Example 16, 3-(4-Chlorophenyl)-1-ethyl-1-(trans-4-(6-fluoroquinolin-4-yl)cyclohexyl)urea]",< 100

# — patent publication US10696648B2, “Inhibitors of indoleamine 2,3-dioxygenase and methods of their use” (BRISTOL-MYERS SQUIBB COMPANY, priority 2016, dated 2020)
